Assay results as given in patent US12139498B1, “Positive allosteric modulators of the muscarinic acetylcholine receptor M4” (Vanderbilt University, priority 2023, dated 2024).

Target: T1, Human M4 (Homo sapiens, UniProt P08173)
T1 sequence (P08173 1-479): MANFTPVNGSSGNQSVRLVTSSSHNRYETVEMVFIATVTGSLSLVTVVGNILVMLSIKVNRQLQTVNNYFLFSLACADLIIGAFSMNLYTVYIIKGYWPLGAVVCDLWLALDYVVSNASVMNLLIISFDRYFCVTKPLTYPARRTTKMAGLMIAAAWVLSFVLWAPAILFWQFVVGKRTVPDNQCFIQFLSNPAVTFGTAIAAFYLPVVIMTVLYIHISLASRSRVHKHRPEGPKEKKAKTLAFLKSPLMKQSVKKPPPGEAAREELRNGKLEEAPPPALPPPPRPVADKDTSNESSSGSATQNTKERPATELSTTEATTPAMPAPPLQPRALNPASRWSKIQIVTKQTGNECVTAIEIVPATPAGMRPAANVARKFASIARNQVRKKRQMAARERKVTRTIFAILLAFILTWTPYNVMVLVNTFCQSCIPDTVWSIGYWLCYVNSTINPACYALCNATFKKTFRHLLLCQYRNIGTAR
Assay: M4 cell-based functional assay (calcium mobilization)
Parameters: expressed in transfected cells
Conditions: for Emax at 30 µM: % ACh maximum at 30 μM; for EC50: CHO-K1 hM4-Gqi5 cells, calcium flux, increase in EC20 acetylcholine response
Protocol: Human (h) and rat (r) M4 CDNAs, along with the chimeric G protein Gqi5, were transfected into Chinese hamster ovary (CHO-K1) cells purchased from the American Type Culture Collection using Lipofectamine2000. The transfected cells were subjected to selection antibiotic treatment to generate stable cell lines; G418 sulfate (1 mg/ml) for selecting M4 expressing cells and Hygromycin B (500 μg/mL) for selecting Gqi5 expressing cells. The resulting polyclones were further screened to obtain monoclones of hM4-Gqi5 and rM4-Gqi5 for compound screening assay. Stable monoclone cells were maintained in Ham's F-12 medium containing 10% heat-inactivated fetal bovine serum (FBS), 1× Antibiotic/Antimycotic, 20 mM HEPES, 500 μg/mL G418 sulfate, and 200 μg/mL Hygromycin B in 37° C. humidified incubators in the presence of 5% CO2.
The high throughput assay was employed to measure receptor-induced mobilization of intracellular calcium to determine compound activity. Test compound was added to cells expressing the muscarinic receptors that were loaded with calcium sensitive fluorescent dye. After a ˜2.5 minute incubation period, a submaximal (EC20) concentration of acetylcholine was added, and the response measured. This kinetic assay allows for simultaneous screening and potency determination of multiple pharmacological modes of action including agonist and potentiator activity. CHO-K1 cells stably expressing muscarinic receptors were plated in growth medium lacking G418 and hygromycin at 15,000 cells/20 μL/well in Greiner 384-well black-walled, tissue culture (TC)-treated, clear-bottom plates (Greiner Bio-One). Cells were incubated overnight at 37° C. and 5% CO2. The next day, calcium assay buffer (Hank's balanced salt solution (HBSS), 20 mM HEPES, 2.5 mM Probenecid, 4.16 mM sodium bicarbonate (Sigma-Aldrich, St. Louis, MO)) was prepared to dilute compounds, agonists, and Fluo-4-acetomethoxyester (Fluo-4-AM), fluorescent calcium indicator dye. Compounds were serially diluted 1:3 into 10 point concentration response curves in DMSO using the Bravo Liquid Handler (Agilent, Santa Clara, CA), transferred to a 384 well daughter plates using an Echo acoustic liquid handler (Beckman Coulter, Indianapolis, Indiana), and diluted in assay Buffer to a 2× final concentration. The agonist plates were prepared using acetylcholine (ACh, Sigma-Aldrich, St. Louis, MO) concentrations for the EC20 and ECMAX responses by diluting in assay buffer to a 5× final concentration. The 2× dye solution (2.3 μM) was prepared by mixing a 2.3 mM Fluo-4-AM stock in DMSO with 10% (w/v) pluronic acid F-127 in a 1:1 ratio in assay buffer. Using a microplate washer (BioTek, Winooski, VT), cells were washed with assay buffer for 3 times to remove medium. After the final wash, 20 μL of assay buffer remained in the cell plates. Immediately, 20 μL of the 2× dye solution (final 1.15 μM) was added to each well of the cell plate using a Multidrop Combi dispenser (Thermo Fisher, Waltham, MA). After cells were incubated with the dye solutions for 45 min at 37° C. in the presence of 5% CO2, the dye solutions were removed and replaced with assay buffer using a microplate washer, leaving 20 μL of assay buffer in the cell plate.
The prepared compound, agonist, and cell plates were placed inside the Functional Drug Screening System uCell (FDSS uCell, Hamamatsu, Japan) to measure the calcium flux.
The triple add protocol was used to measure Ca kinetics; Compound, ACh for EC2O, and ACh for EC80 adds in an order. Briefly, after establishment of a fluorescence baseline for 2 seconds (excitation, 480 nm; emission, 530 nm), first add occurred by adding 20 μL of test compound to the cells, and the response was measured for 140 seconds. This is followed by second add; 10 μL (5×) of an EC20 concentration of ACh agonist was added to the cells, and the response of the cells was measured for 125 seconds. […]

Row | Compound | Emax at 30 µM [%] | EC50 [nM]
1 | Cc1cc(C#N)nnc1N1CCc2nc(Br)sc2C1 [Compound 19, 6-(2-bromo-6,7-dihydrothiazolo[5,4-c]pyridin-5(4H)-yl)-5-methylpyridazine-3-carbonitrile] | 99 | 851
2 | Cc1cc2nc(=O)cc(C)n2nc1N1CCc2nc(Br)sc2C1 [Compound 51, 7-(2-bromo-6,7-dihydrothiazolo[5,4-c]pyridin-5(4H)-yl)-4,8-dimethyl-2H-pyrimido[1,2-b]pyridazin-2-one] | 71 | 378
3 | Cc1cc2nccc(=O)n2nc1N1CCc2nc(Br)sc2C1 [Compound 34, 7-(2-bromo-6,7-dihydrothiazolo[5,4-c]pyridin-5(4H)-yl)-8-methyl-4H-pyrimido[1,2-b]pyridazin-4-one] | 70 | 6070
4 | Cc1cc2nc(C(=O)NC3(C#N)CC3)cc(=O)n2nc1N1CCc2nc(Br)sc2C1 [Compound 46, 7-(2-bromo-6,7-dihydrothiazolo[5,4-c]pyridin-5(4H)-yl)-N-(1-cyanocyclopropyl)-8-methyl-4-oxo-4H-pyrimido[1,2-b]pyridazine-2-carboxamide] | 91 | 360
5 | Cc1cc2nc(=O)ccn2nc1N1CCc2nc(Br)sc2C1 [Compound 50, 7-(2-bromo-6,7-dihydrothiazolo[5,4-c]pyridin-5(4H)-yl)-8-methyl-2H-pyrimido[1,2-b]pyridazin-2-one] | 66 | 521
6 | Cc1cc2nccnc2nc1N1CCc2nc(N)sc2C1 [Compound 60, 5-(7-methylpyrido[2,3-b]pyrazin-6-yl)-4,5,6,7-tetrahydrothiazolo[5,4-c]pyridin-2-amine] | 67 | > 10000
7 | Cc1c(N2CCc3nc(C4CC4)sc3C2)nc2n[nH]c(=O)n2c1C [Compound 72, 7-(2-cyclopropyl-6,7-dihydrothiazolo[5,4-c]pyridin-5(4H)-yl)-5,6-dimethyl-[1,2,4]triazolo[4,3-a]pyrimidin-3(2H)-one] | 91 | 5
8 | Cc1cc(C#N)cnc1N1CCc2nc(Br)sc2C1 [Compound 1, 6-(2-bromo-6,7-dihydrothiazolo[5,4-c]pyridin-5(4H)-yl)-5-methylnicotinonitrile] | 92 | 59
9 | Cc1cn2c(=O)n(C)nc2nc1N1CCc2nc(C3CCC3)sc2C1 [Compound 67, 7-(2-cyclobutyl-6,7-dihydrothiazolo[5,4-c]pyridin-5(4H)-yl)-2,6-dimethyl-[1,2,4]triazolo[4,3-a]pyrimidin-3(2H)-one] | 71 | 4
10 | Clc1ccc2ncnc(N3CCc4nc(Br)sc4C3)c2c1 [Compound 29, 2-bromo-5-(6-chloroquinazolin-4-yl)-4,5,6,7-tetrahydrothiazolo[5,4-c]pyridine] | 96 | 144
11 | Cc1csc2ncnc(N3CCc4nc(Br)sc4C3)c12 [Compound 23, 2-bromo-5-(5-methylthieno[2,3-d]pyrimidin-4-yl)-4,5,6,7-tetrahydrothiazolo[5,4-c]pyridine] | 82 | 204
12 | [2H]C([2H])([2H])c1nc2c(s1)CN(c1ncc(C#N)cc1C)CC2 [Compound 20, 5-methyl-6-(2-(methyl-d3)-6,7-dihydrothiazolo[5,4-c]pyridin-5(4H)-yl)nicotinonitrile] | 101 | 243

Further lines, results first:

Row | Emax at 30 µM [%] | EC50 [nM] | Compound
13 | 59 | 612 | Cc1cc(-c2nc3c(s2)CN(c2ncc(C#N)cc2C)CC3)ccn1 [Compound 2, 5-methyl-6-(2-(2-methylpyridin-4-yl)-6,7-dihydrothiazolo[5,4-c]pyridin-5(4H)-yl)nicotinonitrile]
14 | 88 | 18 | Cc1c(N2CCc3nc(C4(F)CC4)sc3C2)nc2n[nH]c(=O)n2c1C [Compound 69, 7-(2-(1-fluorocyclopropyl)-6,7-dihydrothiazolo[5,4-c]pyridin-5(4H)-yl)-5,6-dimethyl-[1,2,4]triazolo[4,3-a]pyrimidin-3(2H)-one]
15 | 92 | 868 | CCOC(=O)c1cc(=O)n2nc(N3CCc4nc(Br)sc4C3)c(C)cc2n1 [Compound 52, ethyl 7-(2-bromo-6,7-dihydrothiazolo[5,4-c]pyridin-5(4H)-yl)-8-methyl-4-oxo-4H-pyrimido[1,2-b]pyridazine-2-carboxylate]
16 | 76 | 13 | Cc1cn2c(=O)[nH]nc2nc1N1CCc2nc(C3CCC3)sc2C1 [Compound 66, 7-(2-cyclobutyl-6,7-dihydrothiazolo[5,4-c]pyridin-5(4H)-yl)-6-methyl-[1,2,4]triazolo[4,3-a]pyrimidin-3(2H)-one]
17 | 57 | 1890 | Cc1cc2nccnc2nc1N1CCc2nc(C(C)(C)C)sc2C1 [Compound 65, 2-(tert-butyl)-5-(7-methylpyrido[2,3-b]pyrazin-6-yl)-4,5,6,7-tetrahydrothiazolo[5,4-c]pyridine]
18 | 79 | 732 | COc1nc2c(s1)CN(c1nnc(C#N)c(C)c1C)CC2 [Compound 8, 6-(2-methoxy-6,7-dihydrothiazolo[5,4-c]pyridin-5(4H)-yl)-4,5-dimethylpyridazine-3-carbonitrile]
19 | 44 | 4110 | Cc1cc(C#N)cnc1N1CCc2nc(NCc3cccc(F)c3)sc2C1 [Compound 18, 6-(2-((3-fluorobenzyl)amino)-6,7-dihydrothiazolo[5,4-c]pyridin-5(4H)-yl)-5-methylnicotinonitrile]
20 | 82 | 2790 | Cc1cc2nccnc2nc1N1CCc2ncsc2C1 [Compound 53, 5-(7-methylpyrido[2,3-b]pyrazin-6-yl)-4,5,6,7-tetrahydrothiazolo[5,4-c]pyridine]
21 | 81 | 47 | Cc1nc2c(C)c(C)c(N3CCc4nc(Br)sc4C3)nn2c(=O)c1F [Compound 37, 7-(2-bromo-6,7-dihydrothiazolo[5,4-c]pyridin-5(4H)-yl)-3-fluoro-2,8,9-trimethyl-4H-pyrimido[1,2-b]pyridazin-4-one]
22 | 101 | 45 | Fc1ccc2ncnc(N3CCc4nc(Br)sc4C3)c2c1 [Compound 28, 2-bromo-5-(6-fluoroquinazolin-4-yl)-4,5,6,7-tetrahydrothiazolo[5,4-c]pyridine]
23 | 85 | 103 | Cc1nc(Cl)c(C)c(N2CCc3nc(Br)sc3C2)n1 [Compound 11, 2-bromo-5-(6-chloro-2,5-dimethylpyrimidin-4-yl)-4,5,6,7-tetrahydrothiazolo[5,4-c]pyridine]
24 | 43 | > 10000 | Cn1ccc2c(N3CCc4nc(Br)sc4C3)ncnc21 [Compound 27, 2-bromo-5-(7-methyl-7H-pyrrolo[2,3-d]pyrimidin-4-yl)-4,5,6,7-tetrahydrothiazolo[5,4-c]pyridine]
